Experimental data reported in US20240374737A1, “ERK5 DEGRADERS AND USES THEREOF” (DANA-FARBER CANCER INSTITUTE, INC., priority 2021, published 2024).

Columns and labels:
[1] = target: T1, ERK5 (Homo sapiens, UniProt Q13164); test: ERK5 degradation immunoblot in Molt4 cells; type: cell-based; conditions: for ERK5 degradation (immunoblot): 0.1 μM or 1 μM; for ERK5 degradation (immunoblot) / concentration at which ERK5 degradation is seen (as low as / up to): 5 hours
T1 construct: endogenous in cells; host or cells: Molt4 cells
T1 sequence (Q13164 whole entry): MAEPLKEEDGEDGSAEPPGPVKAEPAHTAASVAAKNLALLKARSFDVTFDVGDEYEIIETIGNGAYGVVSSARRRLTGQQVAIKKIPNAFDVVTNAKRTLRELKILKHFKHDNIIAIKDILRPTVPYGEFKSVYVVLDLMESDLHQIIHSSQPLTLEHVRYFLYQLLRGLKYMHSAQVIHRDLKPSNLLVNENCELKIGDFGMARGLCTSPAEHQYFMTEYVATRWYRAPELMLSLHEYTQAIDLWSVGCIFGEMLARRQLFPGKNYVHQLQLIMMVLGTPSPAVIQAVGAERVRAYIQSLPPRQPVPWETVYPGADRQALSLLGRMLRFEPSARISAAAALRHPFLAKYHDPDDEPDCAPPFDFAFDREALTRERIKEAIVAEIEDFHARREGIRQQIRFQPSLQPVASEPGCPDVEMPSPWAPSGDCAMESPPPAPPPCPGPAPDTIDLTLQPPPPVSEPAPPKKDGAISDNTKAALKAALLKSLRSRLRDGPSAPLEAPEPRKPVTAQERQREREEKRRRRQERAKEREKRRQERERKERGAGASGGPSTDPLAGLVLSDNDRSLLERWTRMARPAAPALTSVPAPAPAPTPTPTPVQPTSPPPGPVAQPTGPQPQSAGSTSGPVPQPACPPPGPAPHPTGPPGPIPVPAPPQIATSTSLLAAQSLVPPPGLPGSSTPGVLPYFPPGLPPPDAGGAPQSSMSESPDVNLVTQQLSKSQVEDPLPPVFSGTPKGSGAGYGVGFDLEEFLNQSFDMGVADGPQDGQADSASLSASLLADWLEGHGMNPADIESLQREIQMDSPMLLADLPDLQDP
Protocol: Molt4 cells were maintained in RPMI 1640 supplemented with 10% FBS and 100 U/mL Penicillin-Streptomycin at 37° C. in the presence of 5% CO2. […] The cells were then lysed with RIPA buffer containing phosphatase/protease inhibitor, and cell extracts were precleared by centrifugation at 21000×g for 5 minutes at 4° C. The Pierce BCA protein assay kit was used to assess protein lysate concentration and normalized using SDS sample buffer. Lysates were resolved on 4-12% Tris-Base gels and transferred to an Immuno-Blot PVDF membrane. The membrane was blocked for 1 hour, then incubated with primary antibodies against ERK5 (Cell Signaling) and j-Actin (Cell Signaling). The next day, membranes were washed with TBS-T, then incubated at room temperature for 1 hour with IRDye@800-labeled goat anti-rabbit IgG and IRDye@800-labeled goat anti-mouse IgG (LI-COR) secondary antibodies. The membranes were detected on Odyssey® CLx system.

[2] = target: T1, ERK5; test: Multiplexed tandem mass tag quantitative mass spectrometry proteomics in Molt4 cells; type: cell-based; conditions: 100 nM, 5 hours, vs DMSO vehicle
Protocol: FIG. 3 is a scatterplot that depicts the change in relative protein abundance of compound 2 (100 nM, 5 h)-treated MOLT4 cells compared with DMSO vehicle control-treated cells. Protein abundance measurements were made using tandem mass tag quantitative mass spectrometry. The log 2fold change (log 2FC) is shown on the y axis and negative log 10p value (−log 10p value) on the x axis.

SMILES	ERK5 degradation (immunoblot) [1]	concentration at which ERK5 degradation is seen (as low as / up to) [1] [µM]	change in relative protein abundance (proteome-wide selectivity) [2]	time of treatment within which ERK5 degradation is induced ([1]; 0.1 μM and 1 μM, time course 1 h, 2 h, 3 h, 4 h) [h]	VHL dependence of ERK5 degradation ([1]; 5 h, compared with negative control)	concentration at which ERK5 degradation is induced (as low as) ([1]; 5 hours of treatment) [nM]
Cc1ncsc1-c1ccc([C@H](C)NC(=O)[C@H]2C[C@H](O)CN2C(=O)[C@@H](NC(=O)CCCCCN2CCN(c3ccc4c(C5CCN(C(=O)c6ccc(OC(F)(F)F)cc6N)CC5)ncnc4c3)CC2)C(C)(C)C)cc1 [compound 13, (2R,4S)-1-((S)-2-(6-(4-(4-(1-(2-amino-4-(trifluoromethoxy)benzoyl)piperidin-4-yl)quinazolin-7-yl)piperazin-1-yl)hexanamido)-3,3-dimethylbutanoyl)-4-hydroxy-N—((S)-1-(4-(4-methylthiazol-5-yl)phenyl)ethyl)pyrrolidine-2-carboxamide, reference compound]	did not recruit the VHL E3 ligase or induce ERK5 degradation	> 5				
Cc1ncsc1-c1ccc([C@H](C)NC(=O)[C@@H]2C[C@@H](O)CN2C(=O)[C@@H](NC(=O)CCCCCN2CCN(c3ccc4c(C5CCN(C(=O)c6ccc(OC(F)(F)F)cc6N)CC5)ncnc4c3)CC2)C(C)(C)C)cc1 [compound 2, (2S,4R)-1-((S)-2-(6-(4-(4-(1-(2-amino-4-(trifluoromethoxy)benzoyl)piperidin-4-yl)quinazolin-7-yl)piperazin-1-yl)hexanamido)-3,3-dimethylbutanoyl)-4-hydroxy-N—((S)-1-(4-(4-methylthiazol-5-yl)phenyl)ethyl)pyrrolidine-2-carboxamide]	potently degraded ERK5	≤ 0.05	significant downregulation of only ERK5 protein levels	≤ 2	degraded ERK5 in a VHL-dependent manner	≤ 50
